The results in this text go back to patent publication US20220202739A1, “ENDOCANNABINOID MIMETIC AND ANTI-INFLAMMATORY COMPOUND CONTAINING COMPOSITIONS, METHODS OF PREPARATION AND USES THEREOF” (priority 2019, published 2022).

The structures appear in SMILES notation. Where two headings read alike, the source gives them in different places.

The subject of one experiment is PPARG. The experiment in a line: Gene expression custom microarray, human skin fibroblasts (Example 1): PPARG. Format: cell-based. To be noted: for fold induction at 10 µM: Skin fibroblast, read-out: PPARG↑ gene expression, fold increase or decrease vs untreated cells. From the text:
Cell cultures: A human skin fibroblast cell culture (or cultures) was obtained through the Coriell Cell Repository from the National Institute on Aging Cell Repository (Camden, N.J.), or Promocell GmbH (Heidelberg, Germany). The initial culture was selected from the following cell lines: AG13066, AG11557, AG11796 or GM03651E. The cell lines were derived from donors as follows:
Experimental phase: When the appropriate quantity of cells had been grown, they were detached as described above, but at the final step were seeded into each well of one or more 6 well dishes. Each well received 2 ml of the cell suspension so they were seeded equally. The dishes were returned to the incubator until 85-95% confluency was reached.
It is at this stage that all wells were rinsed in PBS after aspirating the growth media. The compound(s) to be tested were previously mixed into a suitable solvent (e.g., DMSO or ethanol) that can be diluted to the desired concentration of test compound (10 μl) in the culture wells without exceeding maximum solvent concentrations and adversely effecting cell viability, and mixed with basal media. NOTE: Standard maximum levels of solvent are 0.1% for DMSO and 0.5% for ETOH.
Every 2 wells on the 6 well plate served as a biological replicate for the purposes of RNA isolation and genetic expression evaluations making each 6 well dish an n=3 for the test compound(s) contained in the media. Negative control plates (no test compound(s) and only basal media) were also generated. The plates were returned to the incubator for 24 hrs.
(§1) At the end of the 24 hr time period, the plates were removed from the incubator, the test media aspirated, and the cells rinsed with PBS. RNA isolation is performed using the BioRad Aurum Total RNA Mini Kit (Hercules, Calif.) per manufacturer's protocol; which is described, in brief, below: • Add 350 μl of lysis buffer to each well. Pipet multiple times to ensure thorough lysis. Add lysed cells to the collection tube. • Add 350 μl of 70% ETOH to the collection tube and mix thoroughly. • Pipet the generated lysate onto the spin column placed in a new 2 ml tube. Centrifuge for 30 sec between 8,000 and 10,000 g. • Place the spin column containing the now bound RNA, in a new 2 ml tube. Add 700 μl of low stringency wash solution to the spin column. Centrifuge for 30 sec between 8,000 and 10,000 g. Discard the flow through and replace spin column. • Add 80 μl of DNase I dilution to the spin column and incubate at room temperature for 15 minutes. • Add 700 μl of high stringency wash solution to the column and centrifuge for 30 sec between 8,000 and 10,000 g. Discard flow through. • Add 700 μl of low stringency wash solution to the column and centrifuge for 60 sec between 8,000 and 10,000 g. Discard flow through. • Centrifuge for 2 minutes to remove residual wash solution. • Transfer spin column to new 1.5 ml collection tube and add 80 μl of elution solution to the column. Allow 1 minute for saturation of the membrane and then centrifuge for 2 minutes to complete the RNA elution. • Quantify the quantity of RNA and store at −20 C° until use (no more than 1 month)
The genes tested were: • Cannabinoid receptor 1 (CB1(CNR1)) • Cannabinoid receptor 2 (CB2 (CNR2)) • Fatty acid amide hydrolase (FAAH) • Monoacylglycerol lipase (MGLL, i.e., MAGL) • Peroxisome proliferator-activated receptor gamma (PPARG) • Nuclear factor kappa-light-chain-enhancer of activated B cells (NFκβ) • Interleukin 1 Alpha (IL1alpha) • Cyclooxygenase 1 (PTGS1, i.e., COX1) • Transient receptor potential cation channel subfamily A member 1 (TRPA1) • Transient receptor potential cation channel subfamily V member 1 (TRPV1) • Transient receptor potential cation channel subfamily M member 8 (TRPM8) • Hemoglobin Subunit Beta (HBB) REFERENCE GENE • Ribosomal Protein L13a (RPL13A) REFERENCE GENE

For a further experiment, the system named is NFKB1. The experiment in a line: Gene expression custom microarray, pooled keratinocyte line (Example 3): NFKB1. It is filed as cell-based, human. To be noted: pooled keratinocytes, 20 ppm, 24 hr. Here is the method:
NOTE: Standard maximum levels of solvent are 0.1% for DMSO and 0.5% for ETOH.
The plates were returned to the incubator for 24 hrs.
as §1, with “RNA isolation is performed using the BioRad Aurum Total RNA Mini Kit (Hercules, Calif.) per manufacturer's protocol; which is described, in brief, below: • Add 350 μl of lysis buffer to each well.” left out

Setting [1] is: human skin fibroblasts, 10 uM, 24 hr.

For `C=C(C)[C@@H]1CCC(C)=C[C@H]1c1c(O)cc(CCCCC)cc1O` [CBD, cannabidiol, reference compound], the fold induction at 10 µM in the experiment with PPARG (Homo sapiens, 24 h) turned out to be 8.1. Further, the “↓NFKB1 gene expression, fold increase or decrease vs untreated cells” value in the experiment on NFKB1 is on record as 2.5 fold.

`CC(C)[C@]12O[C@H]1[C@@H]1O[C@]13[C@]1(O[C@H]1C[C@H]1C4=C(CC[C@@]13C)C(=O)OC4)[C@@H]2O` [Triptolide]: the fold induction at 10 µM with PPARG (setting [1]) is 1.1. The “↓NFKB1 gene expression, fold increase or decrease vs untreated cells” value in the experiment with NFKB1 is −4.2 fold.

Turning to `CCCCCCCCCCCCCCCC(=O)NCCO` [N-palmitoylethanolamide], the “PPARG↑ gene expression, fold increase or decrease vs untreated cells” value in the experiment with PPARG (setting [1]) amounted to 2.6 fold. Also, in the experiment with NFKB1, the “↓NFKB1 gene expression, fold increase or decrease vs untreated cells” value is reported as −2.2 fold.
